Our source for the inhibition of growth, pest or weed control and melting point values is patent US12043600B2, “Microbiocidal compounds” (SYNGENTA CROP PROTECTION AG, priority 2018, dated 2024).

Where two headings read alike, the source gives them in different places.

Data set [1] has as its system Mycosphaerella graminicola (Septoria tritici). As to the kind of experiment: Mycosphaerella graminicola (Septoria tritici)/Liquid Culture (Septoria Blotch). The conditions noted are these: Zymoseptoria tritici; for inhibition of growth at 20 ppm: liquid culture, compared to untreated control; for inhibition of growth at 6 ppm: M. graminicola (B19), read-out: Disease control (%). It is filed as cell-based. Summed up:
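Results given as % disease control: test compound in DMSO was placed in wells first, then potato dextrose broth carrying cryostored fungal conidia was added.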

Data set [2] has as its system Puccinia recondita f. sp. tritici. As to the kind of experiment: Puccinia recondita f. sp. tritici/Wheat/Leaf Disc Preventative (Brown Rust). The conditions noted are these: foliar. The format is in vivo.
Data set [3] has as its system Phytophthora infestans. Briefly: whole plant or invertebrate. It is filed as in vivo. The conditions noted are these: in Solanum lycopersicum, foliar, read-out: control of Phytophthora infestans.
Data set [4] has as its system Magnaporthe grisea (Pyricularia oryzae). Briefly: whole plant or invertebrate. The format is in vivo. Conditions: foliar, read-out: control of Magnaporthe grisea.
For data set [5], the system named is Monographella nivalis (Microdochium nivale). As to the kind of experiment: Monographella nivalis (Microdochium nivale)/Liquid Culture (Foot Rot Cereals). It is filed as cell-based. The conditions noted are these: liquid culture, compared to untreated control. Summed up:
(§1)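 PDB + cryo-stored conidia; compound in DMSO pre-plated, spore broth added on top.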

In data set [6] the test system is Glomerella lagenarium (Colletotrichum lagenarium). As to the kind of experiment: Glomerella lagenarium (Colletotrichum lagenarium)/Liquid Culture (Anthracnose). The format is cell-based. The conditions noted are these: Colletotrichum orbiculare, liquid culture, compared to untreated control.
In data set [7] the test system is Plasmopara viticola. As to the kind of experiment: whole plant or invertebrate. The format is in vivo. Conditions: foliar, read-out: control of Plasmopara viticola.
The test system of data set [8] is Pyrenophora teres. Briefly: Pyrenophora teres/Barley/Leaf Disc Preventative (Net Blotch). The conditions noted are these: foliar, 200 ppm. The format is in vivo. An excerpt: Barley leaf segments cv. Hasso are placed on agar in a multiwell plate (24-well format) and sprayed with the formulated test compound diluted in water. The leaf segments are inoculated with a spore suspension of the fungus 2 days after application. […] The data are presented as the percentage of disease control of each compound for the biological tests against G. lagenarium (Example B3), P. recondita preventative (Example B13), P. teres (Example B15) and M. graminicola (Example B19) as described above. The testing rates of each biological test is specifically described in table C1 below.

Data set [9] relates to Mycosphaerella arachidis (Cercospora arachidicola). Briefly: Mycosphaerella arachidis (Cercospora arachidicola)/Liquid Culture (Early Leaf Spot). It is filed as cell-based. Conditions: liquid culture, compared to untreated control. An outline of the steps: as §1
Data set [10] deals with Blumeria graminis f. sp. tritici (Erysiphe graminis f. sp. tritici). Briefly: Blumeria graminis f. sp. tritici/Wheat/Leaf Disc Preventative (Powdery Mildew on Wheat). The conditions noted are these: foliar, wheat leaf disc preventative, compared to untreated control. It is filed as in vivo. Summed up:
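Preventative leaf-disc test: percent disease control versus untreated leaf segments read 6-8 days post-application. Compound spray applied to wheat cv. Kanzler segments on agar one day before shaking infected plants over them; incubation at 20° C and 60% rh, 24 h darkness then 12 h light/12 h dark cycles.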

The test system of data set [11] is Phakopsora pachyrhizi. As to the kind of experiment: Phakopsora pachyrhizi/Soybean/Preventative (Soybean Rust). It is filed as in vivo. The conditions noted are these: foliar, 288 h, 200 ppm, soybean leaf disc preventative, compared to untreated control, read-out: control of Phakopsora pachyrhizi.
Where [12] appears, read: wheat leaf disc preventative, compared to untreated control, read-out: control of Puccinia recondita f. sp. tritici.
[13] abbreviates: barley leaf disc preventative, compared to untreated control, read-out: control of Pyrenophora teres.
Setting [14] is: P. recondita prev (B13), read-out: Disease control (%).
The mark [15] stands for this setting: P. teres (B15), read-out: Disease control (%).

By melting point is commonly meant the temperature, or range, at which the solid turns liquid. As for `CO/C=C(\Oc1cc(-n2cc(Cl)c(OC(C)C)n2)ccc1C)C(=O)OC` [Compound E-12, methyl (Z)-2-[5-(4-chloro-3-isopropoxy-pyrazol-1-yl)-2-methyl-phenoxy]-3-methoxy-prop-2-enoate], the melting point was 104 to 107 °C. Further, the inhibition of growth at 20 ppm in data set [1] was not below 80%. The pest or weed control at 200 ppm in data set [2] (setting [12]) is not below 80%. Moreover, the pest or weed control at 200 ppm in data set [3] was not below 80%. For the same molecule, the pest or weed control at 200 ppm in data set [4] is not below 80%. In data set [5], this molecule yielded an inhibition of growth at 20 ppm not below 80%. Also, the inhibition of growth at 20 ppm in [6] was not below 80%. The pest or weed control at 200 ppm in [7] is not below 80%. The pest or weed control at 200 ppm in data set [8] (setting [13]) was not below 80%. In data set [9], this molecule had an inhibition of growth at 20 ppm not below 80%.
Turning to `CO/C=C(\Oc1cccc(-n2ccc(C(F)(F)F)n2)c1)C(=O)OC` [drawing 153], the inhibition of growth at 6 ppm in [1] was 70%. Also, the results for the pest or weed control at 200 ppm in data set [2] (setting [14]) and in data set [8] (setting [15]) were 90% and 50%, respectively.
For the molecule `CO/C=C(\Oc1cc(-n2ccc(C(F)(F)F)n2)ccc1C)C(=O)OC` [drawing 152], in [1], the inhibition of growth at 6 ppm is 100%. Besides, the pest or weed control at 60 ppm in [2] (setting [14]) is 100%. Besides, the pest or weed control at 200 ppm in data set [8] (setting [15]) came to 90%.
With `CCc1ccc(-n2ccc(C(F)(F)F)n2)cc1O/C(=C\OC)C(=O)OC` [Compound E-109, methyl (Z)-2-[2-ethyl-5-[3-(trifluoromethyl)pyrazol-1-yl]phenoxy]-3-methoxy-prop-2-enoate], the melting point was 135 to 137 °C. The inhibition of growth at 20 ppm in data set [1] was not below 80%. Besides, the pest or weed control at 200 ppm in data set [2] (setting [12]) was not below 80%. The molecule further gave an inhibition of growth at 20 ppm in data set [5] not below 80%. Also, the pest or weed control at 200 ppm in [7] is not below 80%. Also, the pest or weed control at 200 ppm in data set [8] (setting [13]) was not below 80%. The molecule further registered a pest or weed control at 200 ppm in data set [10] not below 80%. In [9], this molecule yielded an inhibition of growth at 20 ppm not below 80%.
Turning to `CO/C=C(\Oc1cc(-n2ccc(C(C)C)n2)ccc1C)C(=O)OC` [drawing 149], in [1], the inhibition of growth at 6 ppm was found to be 100%. Besides, the pest or weed control at 60 ppm in [2] (setting [14]) came out at 100%. For the same molecule, the pest or weed control at 200 ppm in [8] (setting [15]) stood at 0%.
Regarding `CO/C=C(\Oc1cc(-n2ccc(C(F)(F)F)n2)ccc1C1CC1)C(=O)OC` [Compound E-108, methyl (Z)-2-[2-cyclopropyl-5-[3-(trifluoromethyl)pyrazol-1-yl]phenoxy]-3-methoxy-prop-2-enoate], the melting point lay in the range of 130 to 132 °C. The inhibition of growth at 20 ppm in data set [1] is not below 80%. In addition, the pest or weed control at 200 ppm in data set [2] (setting [12]) was not below 80%. For the same molecule, the inhibition of growth at 20 ppm in [5] was not below 80%. Further, the pest or weed control at 200 ppm in [8] (setting [13]) is not below 80%. In data set [10], the pest or weed control at 200 ppm was not below 80%. The molecule further had an inhibition of growth at 20 ppm in data set [9] not below 80%.
Consider `CO/C=C(\Oc1cc(-n2ccc(C#N)n2)ccc1C)C(=O)OC` [Compound E-89, methyl (Z)-2-[5-(3-cyanopyrazol-1-yl)-2-methyl-phenoxy]-3-methoxy-prop-2-enoate], for which the inhibition of growth at 20 ppm in data set [1] and in data set [5] was not below 80% each time. Also, the pest or weed control at 200 ppm in [2] (setting [12]) is not below 80%; in [7], not below 80%; in data set [8] (setting [13]), not below 80%; in [11], not below 50%.
Take `CO/C=C(\Oc1cc(-n2ccc(C(F)(F)F)n2)c(F)cc1C)C(=O)OC` [drawing 148]: the inhibition of growth at 6 ppm in data set [1] is 100%. The pest or weed control at 60 ppm in [2] (setting [14]) was found to be 100%. Further, the pest or weed control at 200 ppm in data set [8] (setting [15]) stood at 90%.
